Reference: patent US20250002473A1, “QUINOXALINE DERIVED SULFONAMIDES WITH EGFR DEGRADATION ACTIVITIES AND THEIR USES THEREOF” (Accutar Biotechnology Inc., priority 2023, published 2025)

Key:
Format in all cases: cell-based
[1] = system: BaF3_DTC (EGFR_Exon19del/T790M/C797S); test: EGFR degradation assay (western blot), BaF3_DTC cells; settings: Table 5; BaF3_Del19/T790M/C797S cells, 24 h; read-out: DC50 (nM), 24 h, BaF3_Del19/T790M/C797S
Summary of the method: (§1)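 Cells seeded overnight, then exposed to compounds for 24 h; lysates run on western blot, EGFR probed with tubulin loading control and fluorescent secondary detection. DC50 = concentration giving 50% EGFR degradation.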

BaF3_ASV = test: Cell growth inhibition assay (CellTiter-Glo), BaF3_ASV; settings: Table 7; BaF3_ASV cells; head prints 24 h; read-out: GI50 (nM), 24 h, BaF3_ASV
[2] = target: T1, BaF3_ASV (EGFR_A776inASV) (Homo sapiens, UniProt P00533, DUP767-769); test: EGFR degradation assay (western blot), BaF3_ASV cells; settings: Table 5; BaF3_ASV cells, 24 h; read-out: DC50 (nM), 24 h, BaF3_ASV
T1 construct: expressed in transfected cells; host or cells: Ba/F3 (engineered)
Summary of the method: as §1

NCI-H292 = test: Cell growth inhibition assay (CellTiter-Glo), NCI-H292; settings: Homo sapiens; Table 7; NCI-H292 cells; head prints 24 h
Method: (§2) Cells were seeded in a 96-well plate (Corning 3610) with 90 μL of culture medium per well, and plates were incubated at 37° C. overnight. A 1,000× DMSO stock solution of the desired compound was prepared the following day. A compound dilution plate was prepared by diluting the stock solution 1:100 in the corresponding cell culture medium, 10 μL of the diluted compound solution was added to each 96-well plate well containing the seeded cells. […] The content of the wells was mixed by shaking continuously for 10 min, and luminescence was measured using Envision (PerkinElmer). The data were analyzed with GraphPad Prism 9 (see FIG. 50).
(§3) Table 6, Table 7, and Table 8 list the cell growth inhibition results, where Gls0 represents the compound concentration to cause 50% cell growth inhibition in comparison with DMSO.

BaF3_SVD = test: Cell growth inhibition assay (CellTiter-Glo), BaF3_SVD; settings: Table 7; BaF3_SVD cells
Method: Cells were seeded in a 96-well plate (Corning 3610) with 90 μL of culture medium per well, and plates were incubated at 37° C. overnight. A 1,000× DMSO stock solution of the desired compound was prepared the following day. A compound dilution plate was prepared by diluting the stock solution 1:100 in the corresponding cell culture medium, 10 μL of the diluted compound solution was added to each 96-well plate well containing the seeded cells. Then, the cells were cultured at 37° C. for three days following compound treatment, 100 μL of CellTiter-Glo reagents (Promega G7573) was added to each well of the 96-well plate. The content of the wells was mixed by shaking continuously for 10 min, and luminescence was measured using Envision (PerkinElmer). The data were analyzed with GraphPad Prism 9 (see FIG. 50).
as §3

A431 (EGFR_WT) = target: T2, A431 (EGFR_WT) (Homo sapiens, UniProt P00533); test: EGFR degradation assay (western blot), A431 cells; settings: Table 5, 24 h, read-out: DC50 (nM), 24 h, A431
T2 construct: endogenous in cells; host or cells: A431, NCI-H2073, NCI-H292
T2 sequence (P00533 25-1210): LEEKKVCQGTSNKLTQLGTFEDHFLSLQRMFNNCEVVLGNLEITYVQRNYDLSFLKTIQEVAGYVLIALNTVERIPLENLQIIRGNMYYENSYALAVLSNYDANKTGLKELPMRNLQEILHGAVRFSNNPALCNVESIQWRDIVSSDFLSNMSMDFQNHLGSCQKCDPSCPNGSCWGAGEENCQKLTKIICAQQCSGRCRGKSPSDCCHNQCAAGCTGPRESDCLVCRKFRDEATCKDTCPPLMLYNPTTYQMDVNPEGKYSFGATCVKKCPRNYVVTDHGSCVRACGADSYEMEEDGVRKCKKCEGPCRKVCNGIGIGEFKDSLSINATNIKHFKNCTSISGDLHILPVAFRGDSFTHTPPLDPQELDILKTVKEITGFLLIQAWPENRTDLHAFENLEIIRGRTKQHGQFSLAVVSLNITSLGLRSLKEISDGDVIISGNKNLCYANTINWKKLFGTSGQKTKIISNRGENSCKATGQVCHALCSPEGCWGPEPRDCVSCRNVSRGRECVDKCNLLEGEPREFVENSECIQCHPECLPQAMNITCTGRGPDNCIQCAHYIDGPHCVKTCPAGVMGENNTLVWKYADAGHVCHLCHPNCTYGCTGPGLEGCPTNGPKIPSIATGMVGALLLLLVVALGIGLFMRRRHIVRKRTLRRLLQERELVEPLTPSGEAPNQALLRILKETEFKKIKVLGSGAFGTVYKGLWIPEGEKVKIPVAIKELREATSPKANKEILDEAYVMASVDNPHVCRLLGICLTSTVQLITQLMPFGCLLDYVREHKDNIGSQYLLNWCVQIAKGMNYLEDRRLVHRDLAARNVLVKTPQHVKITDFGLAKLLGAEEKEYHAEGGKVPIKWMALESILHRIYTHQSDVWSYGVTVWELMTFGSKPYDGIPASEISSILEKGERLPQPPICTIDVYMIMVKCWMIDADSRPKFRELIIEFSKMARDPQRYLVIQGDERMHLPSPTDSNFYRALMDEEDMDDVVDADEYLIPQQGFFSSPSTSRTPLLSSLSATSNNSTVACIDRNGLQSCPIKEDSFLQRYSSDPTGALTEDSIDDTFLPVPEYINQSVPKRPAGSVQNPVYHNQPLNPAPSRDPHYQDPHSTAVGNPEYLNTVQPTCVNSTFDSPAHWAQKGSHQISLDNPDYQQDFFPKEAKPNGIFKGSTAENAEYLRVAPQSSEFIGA
Summary of the method: as §1

BaF3_DTC = test: Cell growth inhibition assay (CellTiter-Glo), BaF3_DTC; settings: Table 7; BaF3_Del19/T790M/C797S cells; head prints 24 h; read-out: GI50 (nM), 24 h, BaF3_Del19/T790M/C797S
A431 = test: Cell growth inhibition assay (CellTiter-Glo), A431; settings: Homo sapiens, A-431, 24 h, Table 7; A431 cells; head prints 24 h; read-out: GI50 (nM), 24 h, A431
Summary of the method: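 Cells were plated in 96-well plates (Corning 3610) at 90 μL of culture medium per well and incubated overnight at 37° C. The next day, a 1,000× DMSO compound stock was diluted 1:100 in cell culture medium, and 10 μL was added per well. After shaking for 10 min, luminescence was read on an Envision (PerkinElmer) reader.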

[3] = target: T3, BaF3_SVD (EGFR_D770insSVD) (Homo sapiens, UniProt P00533, INS770SVD); test: EGFR degradation assay (western blot), BaF3_SVD cells; settings: Table 5; BaF3_SVD cells, 24 h
T3 construct: expressed in transfected cells; host or cells: Ba/F3 (engineered)
T3 sequence (P00533 with tags, fused parts or gaps INS770SVD): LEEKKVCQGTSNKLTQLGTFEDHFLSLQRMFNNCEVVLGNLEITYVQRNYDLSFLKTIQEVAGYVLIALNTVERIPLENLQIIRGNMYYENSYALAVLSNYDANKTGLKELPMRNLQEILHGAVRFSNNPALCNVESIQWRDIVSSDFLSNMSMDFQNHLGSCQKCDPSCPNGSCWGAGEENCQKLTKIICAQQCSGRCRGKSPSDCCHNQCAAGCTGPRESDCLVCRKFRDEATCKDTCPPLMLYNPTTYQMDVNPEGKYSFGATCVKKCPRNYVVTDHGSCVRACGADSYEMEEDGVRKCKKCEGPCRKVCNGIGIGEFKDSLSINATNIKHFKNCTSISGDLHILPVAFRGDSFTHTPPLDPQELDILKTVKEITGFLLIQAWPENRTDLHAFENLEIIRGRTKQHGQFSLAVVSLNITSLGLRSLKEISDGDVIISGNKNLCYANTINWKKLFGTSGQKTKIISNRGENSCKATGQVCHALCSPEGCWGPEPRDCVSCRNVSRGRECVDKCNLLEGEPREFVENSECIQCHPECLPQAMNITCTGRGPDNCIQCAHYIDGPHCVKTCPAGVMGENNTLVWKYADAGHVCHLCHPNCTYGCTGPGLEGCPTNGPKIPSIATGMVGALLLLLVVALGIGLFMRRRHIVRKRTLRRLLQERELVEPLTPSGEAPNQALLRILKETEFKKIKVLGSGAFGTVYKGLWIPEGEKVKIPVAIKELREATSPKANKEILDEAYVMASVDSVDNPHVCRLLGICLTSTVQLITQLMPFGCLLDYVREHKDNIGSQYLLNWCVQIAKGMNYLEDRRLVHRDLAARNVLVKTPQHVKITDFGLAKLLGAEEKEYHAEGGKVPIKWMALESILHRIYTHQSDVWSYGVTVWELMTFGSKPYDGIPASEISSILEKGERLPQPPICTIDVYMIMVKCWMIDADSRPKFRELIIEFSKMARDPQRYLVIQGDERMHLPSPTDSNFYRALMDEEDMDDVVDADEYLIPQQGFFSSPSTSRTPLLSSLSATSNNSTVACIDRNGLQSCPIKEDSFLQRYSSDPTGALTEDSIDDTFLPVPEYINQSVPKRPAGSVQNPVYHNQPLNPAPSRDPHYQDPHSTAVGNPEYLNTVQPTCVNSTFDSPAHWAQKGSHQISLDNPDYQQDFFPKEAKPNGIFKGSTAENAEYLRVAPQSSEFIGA
Method: (§4) A431 (EGFR_WT), NCl-H2073 (EGFR_WT), NCl-H292 (EGFR_WT), BaF3_YVAM (Her2_A775insYVAM), BaF3_SVD (EGFR_D770insSVD), BaF3_ASV (EGFR_A776inASV), or BaF3_DTC (EGFR_Exon19del/T790M/C797S) cells were seeded in a 24-well plate at a density of 4×10^5 cells per well for EGFR WT cells and 8× cells per well for EGFR or Her2 mutant cells, and the plates were incubated overnight. The cells were treated with the desired compounds for 24 h. The culture medium was removed, and 100 μL of RIPA buffer (Beyotime, P0013B) containing 1% Protease Inhibitor Cocktail (Bimake, B14001), 1% Phosphatase Inhibitor Cocktail 2 (Sigma, P5726), and 1% Phosphatase Inhibitor Cocktail 3 (Sigma, P0044) were added to lyse the cells. Then, the cell lysates were transferred to 1.5 mL microcentrifuge tubes and centrifuged at 12,000 rpm and 4° C. for 30 min. The supernatants were transferred into new tubes, and the protein concentration was determined using the BCA protein quantification method. All samples were diluted to the same concentration using RIPA buffer, loading buffer was added, samples were denatured, and 15 μg of protein per lane was loaded onto a SurePAGE 4-20% Bis-Tris gel. Samples were separated via electrophoresis in MOPS running buffer at 180 V for 100 min. Then, proteins were transferred onto PVDF membranes using the MiniBlot™ Electrophoretic Transfer Cell Device (Beyotime, E6050). The membrane was blocked using block buffer (LI-COR 927-60001) to prevent non-specific binding. The membrane was incubated with primary antibodies (1:500 dilution, EGFR-CST4405, 1:2000 dilution, Tubulin-ABclonal #AC021) at 4° C. overnight. The membrane was washed three times with 1× TBST buffer for 15 min each. The membrane was incubated with secondary antibodies IRDye 680RD Goat anti-Rabbit IgG Secondary Antibody (1:2000 dilution, LI-COR 926-68071) and IRDye 800CW Goat anti-Mouse IgG Secondary Antibody (1:2000 dilution, LI-COR 926-32210). […] Fluorescence was detected using the Odyssey CLx Imaging System, and the data were analyzed with Empiria Studio Software and GraphPad Prism 9. […]

NCl-H292 (EGFR_WT) = target: T4, NCl-H292 (EGFR_WT) (Homo sapiens, UniProt P00533); test: EGFR degradation assay (western blot), NCl-H292 cells; settings: Table 5; NCI-H292 cells (EGFR_WT), 24 h
T4 construct: endogenous in cells; host or cells: A431, NCI-H2073, NCI-H292
T4 sequence (P00533 25-1210): as the sequence (P00533 25-1210) above
Method: as §4, with “min.” for “min. Then, proteins were transferred onto PVDF membranes using the MiniBlot™ Electrophoretic Transfer Cell Device (Beyotime, E6050). The membrane was blocked using block buffer (LI-COR 927-60001) to prevent non-specific binding. The membrane was incubated with primary antibodies (1:500 dilution, EGFR-CST4405, 1:2000 dilution, Tubulin-ABclonal #AC021) at 4° C. overnight. The membrane was washed three times with 1× TBST buffer for 15 min each. The membrane was incubated with secondary antibodies IRDye 680RD Goat anti-Rabbit IgG Secondary Antibody (1:2000 dilution, LI-COR 926-68071) and IRDye 800CW Goat anti-Mouse IgG Secondary Antibody (1:2000 dilution, LI-COR 926-32210).”

BaF3_YVMA = test: Cell growth inhibition assay (CellTiter-Glo), BaF3_YVMA; settings: Table 7; BaF3_YVMA cells; head prints 24 h
Method: as §2, §3

[4] = target: T5, BaF3_YVAM (Her2_A775insYVAM) (Homo sapiens, UniProt P04626, INS775YVMA); test: EGFR degradation assay (western blot), BaF3_YVAM cells; settings: Table 5; BaF3_YVMA cells (mutant Her2), 24 h
T5 construct: expressed in transfected cells; host or cells: Ba/F3 (engineered)
Method: as §4

NCl-H2073 (EGFR_WT) = target: T6, NCl-H2073 (EGFR_WT) (Homo sapiens, UniProt P00533); test: EGFR degradation assay (western blot), NCl-H2073 cells; settings: Table 5; NCI-H2073 cells (EGFR_WT), 24 h
T6 construct: endogenous in cells; host or cells: A431, NCI-H2073, NCI-H292
T6 sequence (P00533 25-1210): as above
Method: as §4, with “min.” for “min. Then, proteins were transferred onto PVDF membranes using the MiniBlot™ Electrophoretic Transfer Cell Device (Beyotime, E6050). The membrane was blocked using block buffer (LI-COR 927-60001) to prevent non-specific binding. The membrane was incubated with primary antibodies (1:500 dilution, EGFR-CST4405, 1:2000 dilution, Tubulin-ABclonal #AC021) at 4° C. overnight. The membrane was washed three times with 1× TBST buffer for 15 min each. The membrane was incubated with secondary antibodies IRDye 680RD Goat anti-Rabbit IgG Secondary Antibody (1:2000 dilution, LI-COR 926-68071) and IRDye 800CW Goat anti-Mouse IgG Secondary Antibody (1:2000 dilution, LI-COR 926-32210).”

CCc1cc(Nc2ncc(Br)c(Nc3cnc4ccccc4c3P(C)(C)=O)n2)c(OC)cc1N1CCC(N2CCN(CCc3cccc4c3n(CC)c(=O)n4C3CCC(=O)NC3=O)CC2)CC1 (stereo not shown) [Compound A, reference compound]
DC50 [1]: 0.622 nM
GI50 (BaF3_ASV): 824 nM
DC50 [2]: 109 nM
GI50 (NCI-H292): > 3000 nM
GI50 (BaF3_SVD): 2340 nM
DC50 (A431 (EGFR_WT)): > 1000 nM
GI50 (BaF3_DTC): 8.57 nM
GI50 (A431): > 3000 nM
DC50 [3]: 280 nM
DC50 (NCl-H292 (EGFR_WT)): > 1000 nM
GI50 (BaF3_YVMA): 2630 nM
DC50 [4]: > 1000 nM
DC50 (NCl-H2073 (EGFR_WT)): > 1000 nM
